Laboratory results published in patent US20180321224A1, “COMPOSITIONS AND METHODS FOR INCREASING HEPATOCYTE FUNCTIONAL LIFETIME IN VITRO” (Colorado State University Research Foundation, priority 2015, published 2018).
Read-outs that look alike come from different tables or passages of the source.

Columns and labels:
[1] = tested on: primary human hepatocytes in micropatterned co-cultures (MPCCs); assay: Hepatotoxicity screening in MPCCs pre-cultured in physiologic medium (urea synthesis); conditions: for Calculated TC50 (interpolated concentration where urea synthesis drops below 50% of the vehicle control): MPCCs in physiologic medium for 10 days, treated 2 times over 5 days in serum free medium, vehicle DMSO
Description: Therefore, a drug screen with cultures after they were subjected to physiologic medium for 10 days was carried out (FIG. 5). […] Drug treatments were carried out in serum free medium to prevent potential drug-protein interactions.
Urea synthesis and glucose production was quantified using previously described methods. Since human serum contains significant amounts of […], an alternative protocol to quantify MPCC albumin production was used. Specifically, after 2 and 3 weeks of culture, cultures were washed 3 times with 1×PBS, and then incubated for 24 hours in serum free medium. Albumin was then measured in this medium using a sandwich ELISA method. To account for potential residual albumin in cell culture medium, any differences in albumin production between cultures incubated in 5%, 7.5% and 10% serum were examined. […] Enzyme activity was assessed using the methods previously described.
Drug toxicity and enzyme induction were assessed as previously described.

[2] = average maximal drug concentration observed in patients after administering the drug; cited from earlier work
[3] = after 2 treatments over 5 days at 25*Cmax and 100*Cmax, serum free medium, MPCCs pre-cultured in physiologic medium 10 days

Compound | Toxicity categorization by urea synthesis in MPCC supernatants (toxic if below 50% of vehicle control) [1] | Calculated TC50 (interpolated concentration where urea synthesis drops below 50% of the vehicle control) [1] [µM] | Toxicity categorization by urea synthesis in MPCC supernatants (toxic if below 50% of vehicle control) [1, 3] | Cmax [2] [µM]
Clc1ccc(COC(Cn2ccnc2)c2ccc(Cl)cc2Cl)c(Cl)c1 (stereo not shown) [miconazole] | no significant loss in urea synthesis |  |  | 
CC(=O)Oc1ccccc1C(=O)O [aspirin] | no significant loss in urea synthesis |  |  | 
piroxicam |  | 2901 | toxic | 5.13
C[C@@H]1C[C@H]2[C@@H]3CCC4=CC(=O)C=C[C@]4(C)[C@@]3(F)[C@@H](O)C[C@]2(C)[C@@]1(O)C(=O)CO [dexamethasone] | no significant loss in urea synthesis |  |  | 
troglitazone |  | 1555 | toxic | 6.39
C[C@]12C=CC(=O)C=C1CC[C@@H]1[C@@H]2C(=O)C[C@@]2(C)[C@H]1CC[C@]2(O)C(=O)CO [prednisone] | no significant loss in urea synthesis |  |  | 
